These results are taken from patent US6949542B2, “Dihydro-benzo[b][1,4]diazepin-2-one derivatives” (Hoffman-La Roche Inc., priority 2002, dated 2005).

For the molecule `CNc1nc(C)cc(-c2cccc(C3=Nc4cc(C)c(Cl)cc4NC(=O)C3)c2)n1` [Example 319, 8-Chloro-7-methyl-4-[3-(6-methyl-2-methylamino-pyrimidin-4-yl)-phenyl]-1,3-dihydro-benzo[b][1,4]diazepin-2-one], the melting point lay within 235 to 237 °C.
Molecule `Cc1cc(-c2cccc(C3=Nc4cc(C)c(C(F)(F)F)cc4NC(=O)C3)c2)nc(N(C)C)n1` [Example 320, 4-[3-(2-Dimethylamino-6-methyl-pyrimidin-4-yl)-phenyl]-7-methyl-8-trifluoromethyl-1,3-dihydro-benzo[b][1,4]diazepin-2-one] displayed a melting point of 248 to 252 °C.
As for `Cc1cc(-c2cccc(C3=Nc4cc(C)c(Cl)cc4NC(=O)C3)c2)nc(N(C)C)n1` [Example 321, 8-Chloro-4-[3-(2-dimethylamino-6-methyl-pyrimidin-4-yl)-phenyl]-7-methyl-1,3-dihydro-benzo[b][1,4]diazepin-2-one], the melting point fell in the range of 248 to 250 °C.
For `Cc1cc(-c2cccc(C3=Nc4cc(C)c(Cl)cc4NC(=O)C3)c2)nc(NCCO)n1` [Example 323, 8-Chloro-4-{3-[2-(2-hydroxy-ethylamino)-6-methyl-pyrimidin-4-yl]-phenyl}-7-methyl-1,3-dihydro-benzo[b][1,4]diazepin-2-one], the melting point was 197 to 199 °C.
As for `COCCNc1nc(C)cc(-c2cccc(C3=Nc4cc(C)c(C(F)(F)F)cc4NC(=O)C3)c2)n1` [Example 324, 4-{3-[2-(2-Methoxy-ethylamino)-6-methyl-pyrimidin-4-yl]-phenyl}-7-methyl-8-trifluoromethyl-1,3-dihydro-benzo[b][1,4]diazepin-2-one], the figure is 236 to 238 °C.
In the case of `COCCNc1nc(C)cc(-c2cccc(C3=Nc4cc(C)c(Cl)cc4NC(=O)C3)c2)n1` [Example 325, 8-Chloro-4-{3-[2-(2-methoxy-ethylamino)-6-methyl-pyrimidin-4-yl]-phenyl}-7-methyl-1,3-dihydro-benzo[b][1,4]diazepin-2-one], the melting point fell in the range of 222 to 224 °C.
As for `Cc1cc2c(cc1C(F)(F)F)NC(=O)CC(c1cccc(-c3cc(N)ncn3)c1)=N2` [Example 328, 4-[3-(6-Amino-pyrimidin-4-yl)-phenyl]-7-methyl-8-trifluoromethyl-1,3-dihydro-benzo[b][1,4]diazepin-2-one], the melting point lay within 201 to 205 °C.
As for `Cc1cc2c(cc1Cl)NC(=O)CC(c1cccc(-c3cc(N)ncn3)c1)=N2` [Example 329, 4-[3-(6-Amino-pyrimidin-4-yl)-phenyl]-8-chloro-7-methyl-1,3-dihydro-benzo[b][1,4]diazepin-2-one], the figure is 228 to 233 °C; as for `CNc1cc(-c2cccc(C3=Nc4cc(C)c(C(F)(F)F)cc4NC(=O)C3)c2)ncn1` [Example 330, 7-Methyl-4-[3-(6-methylamino-pyrimidin-4-yl)-phenyl]-8-trifluoromethyl-1,3-dihydro-benzo[b][1,4]diazepin-2-one], 232 to 233 °C.
On to `CNc1cc(-c2cccc(C3=Nc4cc(C)c(Cl)cc4NC(=O)C3)c2)ncn1` [Example 331, 8-Chloro-7-methyl-4-[3-(6-methylamino-pyrimidin-4-yl)-phenyl]-1,3-dihydro-benzo[b][1,4]diazepin-2-one], for which the melting point is 240 to 243 °C.
Regarding `Cc1cc2c(cc1C(F)(F)F)NC(=O)CC(c1cccc(-c3cc(N(C)C)ncn3)c1)=N2` [Example 332, 4-[3-(6-Dimethylamino-pyrimidin-4-yl)-phenyl]-7-methyl-8-trifluoromethyl-1,3-dihydro-benzo[b][1,4]diazepin-2-one], the melting point fell in the range of 239 to 242 °C.
For the molecule `Cc1cc2c(cc1Cl)NC(=O)CC(c1cccc(-c3cc(N(C)C)ncn3)c1)=N2` [Example 333, 8-Chloro-4-[3-(6-dimethylamino-pyrimidin-4-yl)-phenyl]-7-methyl-1,3-dihydro-benzo[b][1,4]diazepin-2-one], the melting point lay within 226 to 228 °C.
`COCCNc1cc(-c2cccc(C3=Nc4cc(C)c(Cl)cc4NC(=O)C3)c2)ncn1` [Example 334, 8-Chloro-4-{3-[6-(2-methoxy-ethylamino)-pyrimidin-4-yl]-phenyl}-7-methyl-1,3-dihydro-benzo[b][1,4]diazepin-2-one] yielded a melting point of 211 to 213 °C.
Molecule `Cc1cc2c(cc1Cl)NC(=O)CC(c1cccc(-c3ncccn3)c1)=N2` [Example 335, 8-Chloro-7-methyl-4-(3-pyrimidin-2-yl-phenyl)-1,3-dihydro-benzo[b][1,4]diazepin-2-one] returned a melting point of 223 to 227 °C.
Regarding `CN(C)c1cc2c(cc1C(F)(F)F)NC(=O)CC(c1cccc(-c3ncccn3)c1)=N2` [Example 337, 7-Dimethylamino-4-(3-pyrimidin-2-yl-phenyl)-8-trifluoromethyl-1,3-dihydro-benzo[b][1,4]diazepin-2-one], the melting point lay within 221 to 223 °C.
For `O=C1CC(c2cccc(-c3ncccn3)c2)=Nc2ccc(C(F)(F)F)cc2N1` [Example 338, 4-(3-Pyrimidin-2-yl-phenyl)-8-trifluoromethyl-1,3-dihydro-benzo[b][1,4]diazepin-2-one], the melting point lay in the range of 236 to 237 °C.
Under `O=C1CC(c2cccc(-c3ncccn3)c2)=Nc2ccc(Cl)cc2N1` [Example 339, 8-Chloro-4-(3-pyrimidin-2-yl-phenyl)-1,3-dihydro-benzo[b][1,4]diazepin-2-one] stands 217 to 222 °C.
Under `O=C1CC(c2cccc(-c3ncccn3)c2)=Nc2cc(Cl)c(Cl)cc2N1` [Example 340, 7,8-Dichloro-4-(3-pyrimidin-2-yl-phenyl)-1,3-dihydro-benzo[b][1,4]diazepin-2-one] stands 227 to 230 °C.
The molecule `Cc1nnc(-c2cccc(C3=Nc4cc(N(C)C)c(C(F)(F)F)cc4NC(=O)C3)c2)nc1C` [Example 343, 7-Dimethylamino-4-[3-(5,6-dimethyl-[1,2,4]triazin-3-yl)-phenyl]-8-trifluoromethyl-1,3-dihydro-benzo[b][1,4]diazepin-2-one] displayed a melting point of 233 to 236 °C.
`Cc1cc(C2CC2)ncc1-c1cccc(C2=Nc3ccc(C(F)(F)F)cc3NC(=O)C2)c1` [Example 344, 4-[3-(6-Cyclopropyl-4-methyl-pyridin-3-yl)-phenyl]-8-trifluoromethyl-1,3-dihydro-benzo[b][1,4]diazepin-2-one] returned a melting point of 119 °C.
Molecule `O=C1CC(c2cccc(-c3ccnc(C4CC4)c3)c2)=Nc2ccc(C(F)(F)F)cc2N1` [Example 346, 4-[3-(2-Cyclopropyl-pyridin-4-yl)-phenyl]-8-trifluoromethyl-1,3-dihydro-benzo[b][1,4]diazepin-2-one] returned a melting point of 181 °C.
Under `Cc1cc2c(cc1C(F)(F)F)NC(=O)CC(c1cccc(-c3ccnc(C4CC4)c3)c1)=N2` [Example 347, 4-[3-(2-Cyclopropyl-pyridin-4-yl)-phenyl]-7-methyl-8-trifluoromethyl-1,3-dihydro-benzo[b][1,4]diazepin-2-one] stands 232 °C.
As for `CCOc1cc2c(cc1C(F)(F)F)NC(=O)CC(c1cccc(-c3ccnc(C4CC4)c3)c1)=N2` [Example 348, 4-[3-(2-Cyclopropyl-pyridin-4-yl)-phenyl]-7-ethoxy-8-trifluoromethyl-1,3-dihydro-benzo[b][1,4]diazepin-2-one], the melting point is 244 °C.

The term melting point denotes the temperature, or range, at which the solid turns liquid.
